The values below come from patent US20240368174A1, “Antiviral Heterocyclic Compounds” (Enanta Pharmaceuticals, Inc., priority 2023, published 2024).

Bounds are passed on as bounds.

In general, EC50 refers to the concentration needed to bring the measured effect to its halfway point. The low end stands for greater potency, the high end for weaker potency.

The subject of experiment [1] is HMPV clinical isolate A2 strain TN 94-49. The experiment is described as follows: HMPV antiviral assay, Method 1 (LLC-MK2 cells, ATP-Lite). It counts as cell-based. The conditions noted are these: human metapneumovirus, hMPV A2 TN/94-49, LLC-MK2 cells. Put shortly: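 EC50 derived by four-parameter logistic fit of percent cell health, measured as ATP-Lite luminescence after 7 days at 37° C, 5% CO2. Compounds tested as 10-point 2.5-fold dilutions starting at 2 μM against TN 94-49 virus (MOI 0.005) in LLC-MK2 cells seeded at 5,000/well, infection medium containing 2 μg/mL TPCK-trypsin, serum-free.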

The test system is the same in experiment [2]. The experiment is described as follows: HMPV antiviral assay, Method 2 (LLC-MK2 cells with CP-100-356, ATP-Lite). It counts as cell-based. The conditions noted are these: human metapneumovirus; hMPV A2 TN/94-49, LLC-MK2 cells with CP-100-356, Method 2. An outline of the steps:
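EC50 comes from a four-parameter fit of percent cell viability (ATP-Lite, normalized to virus-only and cell-only wells) after 7 days at 37 °C. Infection used HMPV A2 TN 94-49 at MOI 0.16 in LLC-MK2 cells, with 2 μM P-gp inhibitor CP-100-356 and 2 μg/mL TPCK-trypsin final; dose range 200 nM top, 2.5-fold, 10 points, duplicate.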

Consider `C[C@]1(C(N)=O)COc2c1cc([C@@](O)(CNC(=O)c1cc(OC3CC3)c3nc(C4CC4)sc3c1)C1CC1)nc2-c1cc(Cl)c(F)cc1F` [Example 3], for which the figures for the half-maximal effective concentration (EC50) in experiment [1] and in experiment [2] were under 500 nM and under 200 nM, respectively.

In the case of `COc1cc(C(=O)NC[C@@](O)(c2ccccc2)c2cc3c(c(-c4ccc5c(c4)OC(F)(F)O5)n2)OC[C@]3(C)C(N)=O)cc2cn(C3(F)CC3)nc12` [Example 19], the EC50 in experiment [1] was under 500 nM; in experiment [2], under 200 nM.

For `COc1cc(C(=O)NC[C@@](O)(c2ccsc2)c2cc3c(c(-c4cc(F)c(F)cc4F)n2)OC[C@]3(C)C(N)=O)cc2cn(C3(F)CC3)nc12` [Example 179], the 50% effective concentration (EC50) in experiment [1] is under 500 nM; in experiment [2] it was under 200 nM.

On to `COc1cc(C(=O)NC[C@@](O)(c2ccccn2)c2cc3c(c(-c4cc(Cl)c(F)cc4F)n2)OC[C@]3(C)C(N)=O)cc2cn(C3CC3)nc12` [Example 463], for which the results for the concentration giving a half-maximal response (EC50) in experiment [1] and in experiment [2] were under 500 nM and under 200 nM, respectively.

As for `C[C@]1(C(N)=O)COc2c1cc([C@@](O)(CNC(=O)c1cc(OC3CC3)c3nn(C4(F)CC4)cc3c1)C1CC1)nc2-c1cc(Cl)c(F)cc1F` [Example 5], the EC50 in experiment [1] is under 500 nM; in experiment [2] it was under 200 nM.

Regarding `COc1cc(C(=O)NC[C@@](O)(c2cccc(F)c2)c2cc3c(c(-c4ccc(F)c(Cl)c4Cl)n2)OC[C@]3(C)C(N)=O)cc2oc(C3CC3)nc12` [Example 280], the EC50 in experiment [1] is under 500 nM; in experiment [2] it was under 200 nM.

On to `COc1cc(C(=O)NC[C@@](O)(c2cccc(F)c2)c2cc3c(c(-c4ccc5c(c4Cl)OC(F)(F)O5)n2)OC[C@]3(C)C(N)=O)cc2cn(C(F)F)nc12` [Example 276], for which the concentration giving a half-maximal response (EC50) in experiment [1] is under 500 nM; in experiment [2] it was under 200 nM.

Turning to `COc1cc(C(=O)NC[C@@](O)(c2ccccc2)c2cc3c(c(-c4cc(C(F)F)c(F)cc4F)n2)OC[C@]3(C)C(N)=O)cc2cn(C3(F)CC3)nc12` [Example 298], the values for the 50% effective concentration (EC50) in experiment [1] and in experiment [2] were under 500 nM and under 200 nM, respectively.

Take `COc1cc(C(=O)NC[C@@](O)(c2cccc(F)c2)c2cc3c(c(-c4cccc(Cl)c4Cl)n2)OC[C@]3(C)C(N)=O)cc2cn(C3(F)CC3)nc12` [Example 291]: the EC50 was under 500 nM in experiment [1] and under 200 nM in experiment [2].

Turning to `COc1cc(C(=O)NC[C@@](O)(c2ccccc2)c2cc3c(c(-c4cc(Cl)ccc4F)n2)OC[C@]3(C)C(N)=O)cc2cc(C3CC3)nn12` [Example 146], the concentration giving a half-maximal response (EC50) was under 500 nM in experiment [1] and under 200 nM in experiment [2].

For `COc1cc(C(=O)NC[C@](O)(c2cc3c(c(-c4cc(F)c(F)cc4C)n2)OC[C@]3(C)C(N)=O)C2CC2)cc2cn(C3CC3)nc12` [Example 50], the figures for the EC50 in experiment [1] and in experiment [2] were over 500 nM and under 200 nM, respectively.

Turning to `COc1cc(C(=O)NC[C@@](O)(c2ccccc2)c2cc3c(c(-c4cc(Cl)c(F)cc4F)n2)OC[C@]3(C)C(N)=O)cc2cc(Br)cnc12` [Example 185], the half-maximal effective concentration (EC50) is under 500 nM in experiment [1] and under 200 nM in experiment [2].

Regarding `COc1cc(C(=O)NC[C@@](O)(c2cccc(F)c2)c2cc3c(c(-c4cc(Cl)c(F)cc4F)n2)OC[C@]3(C)C(N)=O)cc2cn(C3CC3)nc12` [Example 132], the EC50 in experiment [1] was under 500 nM; in experiment [2], under 200 nM.

With `C[C@]1(C(N)=O)COc2c1cc([C@@](O)(CNC(=O)c1cc(OC3CC3)c3nn(C(F)F)cc3c1)c1ccc(F)cc1)nc2-c1ccc2c(c1Cl)OC(F)(F)O2` [Example 265], the half-maximal effective concentration (EC50) is under 500 nM in experiment [1] and under 200 nM in experiment [2].

In the case of `COc1cc(C(=O)NC[C@@](O)(c2cccc(F)c2)c2cc3c(c(-c4cc(C(F)(F)F)c(F)cc4F)n2)OC[C@]3(C)C(N)=O)cc2oc(C3CC3)nc12` [Example 297], the 50% effective concentration (EC50) in experiment [1] is under 500 nM; in experiment [2] it was under 200 nM.

For the compound `COc1cc(C(=O)NC[C@@](O)(c2cccc(F)c2)c2cc3c(c(-c4ccc(F)c(Cl)c4Cl)n2)OC[C@]3(C)C(N)=O)cc2cn(C(F)F)nc12` [Example 270], the figures for the EC50 in experiment [1] and in experiment [2] were under 500 nM and under 200 nM, respectively.

In the case of `COc1cc(C(=O)NC[C@@](O)(c2ccccc2)c2cc3c(c(-c4ccc(F)c(Cl)c4Cl)n2)OC[C@]3(C)C(N)=O)cc2cc(C)nnc12` [Example 289], the EC50 in experiment [1] is under 500 nM; in experiment [2] it was under 200 nM.

As to `COc1cc(C(=O)NC[C@](O)(c2cc3c(c(-c4cc(F)c(F)cc4F)n2)OC[C@]3(C)C(N)=O)C2CC(F)(F)C2)cc2cn(C(F)F)nc12` [Example 33], the EC50 in experiment [1] is over 500 nM; in experiment [2], under 200 nM.

As to `C[C@]1(C(N)=O)COc2c1cc([C@@](O)(CNC(=O)c1ccc3nc(C4CC4)oc3c1)c1ccccc1)nc2-c1cc(Cl)c(F)cc1F` [Example 88], the EC50 in experiment [1] is under 500 nM; in experiment [2], under 200 nM.

As to `COc1cc(C(=O)NC[C@@](O)(c2ccccc2)c2cc3c(c(-c4cc(F)c(F)cc4F)n2)OC[C@]3(C)C(N)=O)cc2cn(C3CC3)nc12` [Example 171], the 50% effective concentration (EC50) in experiment [1] is under 500 nM; in experiment [2], under 200 nM.

`COc1cc(C(=O)NC[C@@](O)(c2ccccc2)c2cc3c(c(-c4cc(F)c(F)cc4F)n2)OC[C@]3(C)C(N)=O)cc2cn(C3(F)CC3)nc12` [Example 170]: the half-maximal effective concentration (EC50) was under 500 nM in experiment [1] and under 200 nM in experiment [2].

Regarding `COc1cc(C(=O)NC[C@@](O)(c2ccc(F)cc2)c2cc3c(c(-c4cc(Cl)c(F)cc4F)n2)OC[C@]3(C)C(N)=O)cc2cn(C3(F)CC3)nc12` [Example 14], the concentration giving a half-maximal response (EC50) is under 500 nM in experiment [1] and under 200 nM in experiment [2].

With `COc1cc(C(=O)NC[C@@](O)(c2cccc(F)c2)c2cc3c(c(-c4cc(C(F)(F)F)c(F)cc4F)n2)OC[C@]3(C)C(N)=O)cc2cn(C3(F)CC3)nc12` [Example 296], the concentration for a half-maximal effect (EC50) in experiment [1] was under 500 nM; in experiment [2] it was under 200 nM.

Turning to `COc1cc(C(=O)NC[C@@](O)(c2cccc(F)c2)c2cc3c(c(-c4cc(C(F)(F)F)c(F)cc4F)n2)OC[C@]3(C)C(N)=O)cc2cn(C3CC3)nc12` [Example 295], the EC50 in experiment [1] was under 500 nM; in experiment [2], under 200 nM.

Turning to `COc1cc(C(=O)NC[C@@](O)(c2ccccc2)c2cc3c(c(-c4cc(Cl)c(F)cc4F)n2)OC[C@]3(C)C(N)=O)cc2sc(N)nc12` [Example 157], the EC50 was under 500 nM in experiment [1] and under 200 nM in experiment [2].

Turning to `COc1cc(C(=O)NC[C@@](O)(c2cccc(F)c2)c2cc3c(c(-c4cccc(Cl)c4Cl)n2)OC[C@]3(C)C(N)=O)cc2oc(C)nc12` [Example 293], the concentration for a half-maximal effect (EC50) in experiment [1] is under 500 nM; in experiment [2], under 200 nM.

Consider `CCc1cc(-c2nc([C@@](O)(CNC(=O)c3cc(OC)c4nn(C5CC5)cc4c3)C3CC3)cc3c2OC[C@]3(C)C(N)=O)ccc1F` [Example 71], for which the half-maximal effective concentration (EC50) in experiment [1] was over 500 nM; in experiment [2] it was over 200 nM.

`Cc1nc2c(OC3CC3)cc(C(=O)NC[C@@](O)(c3ccccc3)c3cc4c(c(-c5ccc(F)c(Cl)c5Cl)n3)OC[C@]4(C)C(N)=O)cc2o1` [Example 271]: the 50% effective concentration (EC50) in experiment [1] is under 500 nM; in experiment [2] it was under 200 nM.

For the compound `COc1cc(C(=O)NC[C@@](O)(c2ccccc2)c2cc3c(c(-c4ccc5c(c4)OC(F)(F)O5)n2)OC[C@]3(C)C(N)=O)cc2cn(C3CC3)nc12` [Example 18], the EC50 in experiment [1] was under 500 nM; in experiment [2], under 200 nM.

Take `C[C@]1(C(N)=O)COc2c1cc([C@@](O)(CNC(=O)c1ccc3nc(C4CC4)oc3c1)c1cccc(F)c1)nc2-c1ccc2c(c1Cl)OC(F)(F)O2` [Example 287]: the figures for the 50% effective concentration (EC50) in experiment [1] and in experiment [2] were under 500 nM and under 200 nM, respectively.

As to `COc1cc(C(=O)NC[C@@](O)(c2ccccc2)c2cc3c(c(-c4ccc(F)c(Cl)c4Cl)n2)OC[C@]3(C)C(N)=O)cc2cn(C3(F)CC3)nc12` [Example 259], the EC50 was under 500 nM in experiment [1] and under 200 nM in experiment [2].

As for `COc1cc(C(=O)NC[C@@](O)(c2cccc(F)c2)c2cc3c(c(-c4ccc5c(c4Cl)OC(F)(F)O5)n2)OC[C@]3(C)C(N)=O)cc2cn(C3(F)CC3)nc12` [Example 275], the figures for the EC50 in experiment [1] and in experiment [2] were under 500 nM and under 200 nM, respectively.

Regarding `COc1cc(C(=O)NC[C@](O)(c2cc3c(c(-c4cc(Cl)c(F)cc4F)n2)OC[C@]3(C)C(N)=O)c2nccs2)cc2cn(C3CC3)nc12` [Example 475], the EC50 in experiment [1] was under 500 nM; in experiment [2], under 200 nM.

For `COc1cc(C(=O)NC[C@](O)(c2cc3c(c(-c4ccc(F)c(F)c4C)n2)OC[C@]3(C)C(N)=O)C2CC2)cc2cn(C3CC3)nc12` [Example 70], the 50% effective concentration (EC50) in experiment [1] was under 500 nM; in experiment [2] it was under 200 nM.

In the case of `COc1cc(C(=O)NC[C@@](O)(c2cccc(F)c2)c2cc3c(c(-c4cccc(Cl)c4Cl)n2)OC[C@]3(C)C(N)=O)cc2oc(C3CC3)nc12` [Example 292], the figures for the concentration for a half-maximal effect (EC50) in experiment [1] and in experiment [2] were under 500 nM and under 200 nM, respectively.

On to `COc1cc(C(=O)NC[C@@](O)(c2ccccc2)c2cc3c(c(-c4cc(C(F)(F)F)ccc4F)n2)OC[C@]3(C)C(N)=O)cc2cn(C3CC3)nc12` [Example 147], for which the 50% effective concentration (EC50) in experiment [1] was under 500 nM; in experiment [2], under 200 nM.

Take `[2H]C([2H])([2H])c1nc2ccc(C(=O)NC[C@@](O)(c3cccc(F)c3)c3cc4c(c(-c5ccc(F)c(Cl)c5Cl)n3)OC[C@]4(C)C(N)=O)cc2o1` [Example 281]: the concentration for a half-maximal effect (EC50) in experiment [1] was under 500 nM; in experiment [2] it was under 200 nM.

Take `C[C@@H](O)COc1cc(C(=O)NC[C@](O)(c2cc3c(c(-c4ccc(F)c(Cl)c4F)n2)OC[C@]3(C)C(N)=O)C2CC2)cc2cn(C3CC3)nc12` [Example 38]: the EC50 in experiment [1] was over 500 nM; in experiment [2], under 200 nM.

With `COc1cc(C(=O)NC[C@@](O)(c2ccc(F)cc2)c2cc3c(c(-c4ccc(F)c(Cl)c4Cl)n2)OC[C@]3(C)C(N)=O)cc2cn(C3(F)CC3)nc12` [Example 43], the EC50 in experiment [1] is under 500 nM; in experiment [2] it was under 200 nM.
